Assay results as given in patent US20160025704A1, “METHODS FOR IDENTIFYING NEUROPROTECTIVE PKC ACTIVATORS” (priority 2013, published 2016).

Experiments:
sAPP-α [1] = test: sAPP-α secretion in control cell lines; format: cell-based, human; details: 0.1 nM
sAPP-α [2] = test: sAPP-α secretion in an Alzheimer's disease cell line; format: cell-based, human; details: AD cell line
Experimental: Protocol: An Alzheimer's disease cell line was incubated with bryostatin (0.1 nM), Benzolactam (0.1 nM or 1.0 μM), DMSO, pre-treated with staurosporin (100 nM) plus bryostatin (0.1 nM) for three hours. […] The graph units are relative to the vehicle, DMSO, alone (1).

cerebral ischemia rats [3] = test: Pyramidal cells, BDNF and synapses in dorsal hippocampal CA1 area after cerebral ischemia; format: in vivo; details: 15 μg/m^2 tail vein for 5 weeks beginning 24 hours after ischemic/hypoxic event
Experimental: Protocol: Rats were administered bryostatin-1 (15 μg/m^2, tail vein injection) for 5 weeks beginning 24 hours after the end of the ischemic/hypoxic event. […] Non-treated groups received the same vehicle volumes, mechanism of delivery, and frequency of administration as the treated groups.

human neprilysin = test: Membrane localization of neprilysin in SH+hNEP cells (biotinylation, Western blot); format: cell-based; details: 1 nM
Experimental: Protocols: SHSYSY cells overexpressing human neprilysin (SH+hNEP cells) were incubated with 1 μM oligomeric Aβ(1-42) for 4 hours in the absence or presence of bryostatin (Bryo, 1 nM). Some cells were pre-treated with Ro 32-0432 (Ro, 2 μM, a PKC inhibitor) for 30 min and then treated with Bryo. Cell surface-located proteins were then biotinylated and extracted using streptavidin beads, followed by immunoprecipitation using a neprilysin antibody Immunoprecipitates were subjected to Western blot analysis using neprilysin antibody (Mean+SEM of three independent experiments, **P<0.01, Aβ compared with untreated; #P<0.01, Ro+Bryo compared with Bryo). Results are shown below in FIG. 17.
Protocol: After SH+hNEP cells were untreated or treated with bryostatin (Bryo, 1 nM), or pre-treated with PKC inhibitor Ro 32-0432 (Ro, 2 μM) for 30 min and then treated with Bryo for 1 hour, cell surface located proteins were biotinylated and pulled down using streptavidin beads, followed by immunoprecipitation using a neprilysin antibody. […] Cells were then lysed and neprilysin activity was measured. […] Further incubation with leucine aminopeptidases released free 4-methoxy-2-naphthylamide that was measured fluorometrically at an emission of 425 nm. […]

cerebral ischemia rats [4] = test: Spatial learning, memory and visible platform test after cerebral ischemia; format: in vivo; details: 15 μg/m2 tail vein
Experimental: Protocol: Bryostatin-1 (15 μg/m2) was administered through a tail vein (2 doses/week, for 10 doses), starting 24 hours after the end of the ischemic (2-VO)/hypoxic event. The ability of the rats in spatial learning (2 trials/day for 4 days) and memory (a probe test of 1 min, 24 hours after the last trial) was evaluated, with the first training started 9 days after the last dose of bryostatin-1. […] (Bry—bryostatin-1; Isch—cerebral ischemia; NS—not significant) (*, P<0.05).

GSK-3β = test: Phosphorylation of GSK-3β (Ser9) in hippocampus (Western Blot); format: in vivo, mice; details: 20 μg/m2 i.v., 2 doses/wk for 13 wk
HuC and HuD proteins = test: Dendritic spines, presynaptic vesicles and HuC/HuD nuclear export in healthy rats after water maze training; format: in vivo; details: 10 μg/kg body weight intraperitoneal, 3 doses every other day; two days after 6-days of training
Experimental: Protocol: Non-diseased, healthy brown Norway rats (at 4-5 months old) were used in this study. Two days after 6-days of training, increases in dendritic spines (a, b) and presynaptic vesicle concentration (a, d) within unchanged axonal bouton density (a, c) were correlated with an increase in the nuclear export of HuC and HuD proteins into the dendritic shaft as compared with naive and swim controls (a, e). Those changes were enhanced with bryostatin treatment (10 μg/kg body weight, intraperitoneal injection, 3 doses every other day). Nv=naîve controls; Sw=swim controls; Mz=water maze treatment; and Mz/Br=water maze treatment plus bryostatin treatment).

PKC-α = target: T1, PKC-α (Mus musculus, UniProt P20444); test: PKC-α translocation by bryostatin in mouse brain (Western blot); format: in vivo; details: 30 and 120 minutes after administration
T1 construct: The effect of bryostatin on brain PKC translocation; from tissue; host or cells: brain of C57BL/6 mice
Protocol: Protocol: Male C57BL/6M mice (15-20 g, Charles River) were acclimatized for 7-8 days in a non-enriched environment, three mice per cage. Bryostatin (Tocris) was dissolved in DMSO, diluted into 0.9% saline, and injected into the tail vein at doses of 10 and 15 μg/m2. After a fixed period, the mice were anesthetized with CO2 and the brain was frozen on dry ice. Blood was mixed with 0.2 ml 1 mM EDTA in PBS, centrifuged at 100 g for 30 min, and plasma was frozen on dry ice.
Activation and translocation of PKC-ε were measured by Western blotting after subcellular fractionation into cytosol and particulate fractions. Homogenates were centrifuged at 100,000×g for 20 min and cytosolic and particulate fractions were separated on 4-20% Tris-glycine SDS polyacrylamide gels, blotted onto nitrocellulose, and probed with isozyme specific antibodies. The blots were photographed in a GE ImageQuant at 16 bits/pixel and analyzed by vertical strip densitometry using Imal Unix software.

TA 1535 Cells = test: AMES test, TA1535 cells; format: cell-based; details: TA1535 Cells, plate count
Source text: The AMES test is a rapid screening of the mutagenic potential of chemical compounds. […] Between 50% and 70% of all known carcinogens test positive in the AMES test.

CCC/C=C/C=C/C(=O)O[C@H]1/C(=C/C(=O)OC)C[C@H]2C[C@H]([C@@H](C)O)OC(=O)C[C@H](O)C[C@@H]3C[C@H](OC(C)=O)C(C)(C)[C@](O)(C[C@@H]4C/C(=C/C(=O)OC)C[C@H](/C=C/C(C)(C)[C@]1(O)O2)O4)O3 [Bryostatin, bryostatin-1]
sAPP-α secretion in two control cell lines (sAPP-α [1]): effective in enhancing secretion in two control cell lines, although to a lesser extent than in the AD cell line | sAPP-α secretion at lower concentration (sAPP-α [2]; 0.01 nM, time course): much slower but had about the same effect on secretion after 120 min of incubation | amount of sAPP-α in the medium (sAPP-α [2]; 0.1 nM, 3 h incubation, relative to DMSO): dramatically enhanced the amount of sAPP-α in the medium | incubation time at which secretion is near maximal (sAPP-α [2]; 0.1 nM, time course): 160 min | potency in sAPP-α secretion compared with BL (sAPP-α [2]; both at 0.1 nM): more potent than another PKC activator, BL | immunofluorescence intensity of BDNF (cerebral ischemia rats [3]): induced an increase in the immunofluorescence intensity of brain-derived neurotrophic factor (BDNF) | loss of dendritic spines and synapses (cerebral ischemia rats [3]): protected the loss of dendritic spines and synapses | neuronal loss (cerebral ischemia rats [3]; 9 days after last dose): prevented neuronal loss | membrane localization of neprilysin protein inhibited by Aβ (human neprilysin; 1 μM oligomeric Aβ(1-42), 4 hours): recovers membrane localization of neprilysin protein inhibited by Aβ | neprilysin membrane localization (human neprilysin; 1 hour, without Aβ): enhances neprilysin membrane localization | sensorimotor ability (visible platform test) (cerebral ischemia rats [4]; 2 doses/week for 10 doses (FIG. 23)): but not sensorimotor ability | learning experience and memory after cerebral ischemia (cerebral ischemia rats [4]; 2 doses/week for 10 doses, training started 9 days after last dose (FIG. 23)): rescues learning experience and memory | phosphorylation of GSK-3β (Ser9) in the hippocampus of fragile X mice (GSK-3β): increases phosphorylation of GSK-3β | training-induced increases in dendritic spines, presynaptic vesicle concentration and nuclear export of HuC and HuD proteins (HuC and HuD proteins): enhanced | PKC-α translocation in mouse brain (PKC-α): translocation was only observed by PKC-ε

CCCCCC1CC1CC1CC1CCCCCCCC(=O)O (centres unmarked) [DCPLA, 8-[2-(2-pentylcyclopropyl)methyl]-cyclopropaneoctanoic acid]
Negative (TA 1535 Cells; 0.125 mM): 95 | Positive (TA 1535 Cells; 0.125 mM): 1 | Negative (TA 1535 Cells; 0.25 mM): 93 | Positive (TA 1535 Cells; 0.25 mM): 3 | Negative (TA 1535 Cells; 0.5 mM): 94 | Positive (TA 1535 Cells; 0.5 mM): 2 | Negative (TA 1535 Cells; 1 mM): 93 | Positive (TA 1535 Cells; 1 mM): 3
